Columns and labels:
EGFR (D770_N771insNPG) = EGFR (D770_N771insNPG) (Homo sapiens (Human), UniProt P00533, INS770NPG); experiment: Potency of EGFR (D770_N771insNPG) enzymatic activity inhibition (ADP-Glo luminescence); assay type: biochemical; details: recombinant EGFR (D770_N771insNPG) 1.5 nM, Poly(Glu, Tyr) substrate, ATP, 1 h at rt
Experimental: Example B. Primary Assay Used to Determine Potency of EGFR (D770_N771insNPG) Enzymatic Activity Inhibition
Compounds activity was determined using recombinant EGFR (D770 N771insNPG) protein (SignalChem, #E10-132GG-10) and Poly(Glu, Tyr) substrate (Sigma-Aldrich, #P0275) in an in vitro enzymatic reaction. The enzymatic assay used to determine activity was a Luminescence assay using a Microplate Reader ClarioStar Plus. The enzymatic reaction was carried out in assay buffer (40 mM TRIS-HCl pH 7.4-7.6, 20 mM MgCl2, 2.5 mM MnCl2, 0.05 mM DTT, 0.1 mg/ml BSA). The compounds were dispensed on a 384 well Diamond Well Plate (Axigen, Cat #P-384-120SQ-C—S) using the Biomek FX liquid handling system at 80× solutions of compounds in DMSO. 2× Protein-Substrate mix (final concentration 1.5 nM of EGFR (D770_N771insNPG) and 50 ng/μl of Poly(Glu, Tyr)) was prepared in 1× Assay buffer and 4 µl of mixture per well was added into 384w white Reaction plate with NBS (Coming, Cat #4513). 4 μl of Poly(Glu, Tyr) substrate w/o EGFR in 1× buffer was used for negative control. Plates were centrifuged for 1 min at 200 g. Next step the Compounds were added to Reaction plate using Biomek station via following steps: 1 μl of 80× compounds (in DMSO) were mixed thoroughly with 39 μl of 2× 10 μM ATP in Assay Buffer, then 4 μl of this mixture was added to Reaction plate with 4 μl of Protein-Substrate mix. Plates were centrifuged for 1 min at 200 g and incubated for 1 h at rt. Next 4 μL of ADP-Glo reagent (Promega, ADP-Glo™ Kinase Assay, Cat #V9102) per well was added. Plates were incubated for 30 min at rt. Then 8 μL of Kinase detection reagent (Promega, ADP-Glo™ Kinase Assay, Cat #V9102) per well was added and the Luminescence was measured using Microplate Reader. The % inhibition was then used to calculate the EC50 values. The values of EC50 shown as a letters A-E, where: A<0.001 μM; 0.001 μM<B<0.005 μM; 0.005 μM<C<0.01 μM; 0.01<D<0.05 μM; E>0.05.

EGFR (WT) = EGFR (WT) (Homo sapiens (Human), UniProt P00533); experiment: Potency of EGFR enzymatic activity inhibition (WT) (ADP-Glo luminescence); assay type: biochemical; details: recombinant EGFR (WT) 4 nM, Poly(Glu, Tyr) substrate, ATP, 1 h at rt
Sequence of EGFR (WT) (P00533 25-1210): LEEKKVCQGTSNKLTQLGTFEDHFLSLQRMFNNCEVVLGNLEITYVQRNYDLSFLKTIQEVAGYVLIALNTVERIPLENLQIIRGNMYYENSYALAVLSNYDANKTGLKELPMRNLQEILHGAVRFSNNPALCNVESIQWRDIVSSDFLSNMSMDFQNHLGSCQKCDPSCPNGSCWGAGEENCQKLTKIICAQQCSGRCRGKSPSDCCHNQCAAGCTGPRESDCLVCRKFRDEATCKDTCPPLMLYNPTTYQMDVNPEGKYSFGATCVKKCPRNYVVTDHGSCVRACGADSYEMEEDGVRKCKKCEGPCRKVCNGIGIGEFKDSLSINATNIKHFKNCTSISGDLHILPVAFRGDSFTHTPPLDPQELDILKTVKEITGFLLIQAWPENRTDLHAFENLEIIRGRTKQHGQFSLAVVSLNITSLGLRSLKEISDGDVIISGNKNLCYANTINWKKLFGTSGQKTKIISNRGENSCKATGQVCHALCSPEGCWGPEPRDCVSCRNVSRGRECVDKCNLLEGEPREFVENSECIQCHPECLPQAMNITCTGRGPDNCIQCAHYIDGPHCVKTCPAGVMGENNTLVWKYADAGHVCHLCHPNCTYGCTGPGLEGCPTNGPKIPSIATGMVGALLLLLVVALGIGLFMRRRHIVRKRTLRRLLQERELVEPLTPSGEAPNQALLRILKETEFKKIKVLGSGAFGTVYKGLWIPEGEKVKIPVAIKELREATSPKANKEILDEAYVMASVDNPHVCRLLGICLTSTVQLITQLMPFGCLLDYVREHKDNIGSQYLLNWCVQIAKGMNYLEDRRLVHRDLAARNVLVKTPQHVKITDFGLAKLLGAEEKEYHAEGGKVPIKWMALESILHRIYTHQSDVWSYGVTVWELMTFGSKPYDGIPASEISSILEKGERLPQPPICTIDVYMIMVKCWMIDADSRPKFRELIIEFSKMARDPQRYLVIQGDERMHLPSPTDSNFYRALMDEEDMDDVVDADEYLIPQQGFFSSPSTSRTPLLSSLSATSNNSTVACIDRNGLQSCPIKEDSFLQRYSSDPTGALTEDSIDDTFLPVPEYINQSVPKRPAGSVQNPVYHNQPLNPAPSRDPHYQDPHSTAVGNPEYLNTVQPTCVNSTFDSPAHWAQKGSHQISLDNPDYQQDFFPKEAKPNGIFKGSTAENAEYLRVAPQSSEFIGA
Experimental: Example D. Primary Assay Used to Determine Potency of EGFR enzymatic activity Inhibition (WT)
Compound activity was determined using recombinant EGFR protein (SignalChem, #E10-112G-10) and Poly(Glu, Tyr) substrate (Sigma-Aldrich, #P0275) in an in vitro enzymatic reaction. The enzymatic assay used to determine activity was a Luminescence assay using a Microplate Reader ClarioStar Plus. The enzymatic reaction was carried out in assay buffer (40 mM TRIS-HCl pH 7.4-7.6, 20 mM MgCl2, 2.5 mM MnCl2, 0.05 mM DTT, 0.1 mg/ml BSA). The compounds were dispensed on a 384 well Diamond Well Plate (Axigen, Cat #P-384-120SQ-C—S) using the Biomek FX liquid handling system at 80× solutions of compounds in DMSO. 2× Protein-Substrate mix (final concentration 4 nM of EGFR and 50 ng/μl of Poly(Glu, Tyr)) was prepared in 1× Assay buffer and 4 μl of mixture per well was added into 384w white Reaction plate with NBS (Coming, Cat #4513). 4 μl of Poly(Glu, Tyr) substrate w/o EGFR in 1× buffer was used for negative control. Plates were centrifuged for 1 min at 200 g. Next step the Compounds were added to Reaction plate using Biomek station via following steps: 1 μl of 80× compounds (in DMSO) were mixed thoroughly with 39 μl of 2× 10 μM ATP in Assay Buffer, then 4 μl of this mixture was added to Reaction plate with 4 μl of Protein-Substrate mix. Plates were centrifuged for 1 min at 200 g and incubated for 1 h at rt. Next 4 μL of ADP-Glo reagent (Promega, ADP-Glo™ Kinase Assay, Cat #V9102) per well was added. Plates were incubated for 30 min at rt. Then 8 μL of Kinase detection reagent (Promega, ADP-Glo™ Kinase Assay, Cat #V9102) per well was added and the Luminescence was measured using Microplate Reader. The % inhibition was then used to calculate the EC50 values. The results for certain compounds are presented in the Table D. The values of EC50 shown as a letters A-E, where: A<0.001 μM; 0.001 μM<B<0.005 μM; 0.005 μM<C<

Ba/F3 (EGFRwt) = experiment: Cellular growth inhibition assay (CellTiter-Glo), Ba/F3 (EGFRwt); assay type: cell-based; details: Mus musculus, BaF3, 72 h; Ba/F3 (Wild type) with 10 ng/ml rhEGF, 3 days of incubation
Experimental: (§1) Example E. Cellular Growth Inhibition Assay
(§2) Ba/F3(Empty vector) (Signosis), Ba/F3(Wild type) (Signosis), Ba/F3(L^858R+T790M) (Signosis), Ba/F3(A767_dupASV) (Signosis), Ba/F3(D770_N771insSVD) (Signosis), Ba/F3(H773_V774insNPH) (Signosis) were seeded at a density of 4000 cells per well in a CellBIND® 384-well Flat Clear Bottom Black Polystyrene Microplates (Coming, USA, Cat #3770) in 45 μl total volume of RPMI (PanEco, Cat #C330, Russia) with […] (HyClone, Cat #SV30160.03) and with 10 ng/ml rmIL-3 (RD systems, USA, Cat #403-ML-025) (for BaBF3(Empty vector)) and with 10 ng/ml rhEGF (ThermoFisher, USA, Cat #PHG0311L) (for BaCF3(Wild type)). 500× compounds solutions in DMSO (Sigma Cat #D2650) were prepared into Cmpnds plate (DiamondWell Plate, Axigen, Cat #P-384-120SQ-C—S) and DMSO only control was included. 1.l of 500× compounds (Cmpnds plate) was added to 49 µl of culture medium into Dilution plate (Diamond Well Plate, Axigen, Cat #P-384-120SQ-C—S), mixed and then 5 μl of 10× compounds solutions were transferred to cells followed by centrifugation at 100 g for 1 min. Final DMSO concentration was 0.2% o. After 3 days of incubation 10.l of CellTiter-Glo (Promega, CAT #G7572) were added to the cells, plate was centrifuged at 100 g for 1 min and luminescence signal was measured using Microplate Reader (CLARIOStar).

Ba/F3 (L858R + T790M) = experiment: Cellular growth inhibition assay (CellTiter-Glo), Ba/F3 (L858R+T790M); assay type: cell-based; details: Mus musculus, BaF3, 72 h; 3 days of incubation
Experimental: as §1, §2

Ba/F3 (A767_dupASV) = experiment: Cellular growth inhibition assay (CellTiter-Glo), Ba/F3 (A767_dupASV); assay type: cell-based; details: Mus musculus, BaF3, 72 h; 3 days of incubation; read-out: Ba/F3 (A767_dup ASV) CC50
Experimental: as §1, §2

Ba/F3 (D770_N771insSVD) = experiment: Cellular growth inhibition assay (CellTiter-Glo), Ba/F3 (D770_N771insSVD); assay type: cell-based; details: Mus musculus, BaF3, 72 h; 3 days of incubation; read-out: Ba/F3 (D770_N771 insSVD) CC50
Experimental: as §1, §2

Ba/F3 (H773_V774insSVD) = experiment: Cellular growth inhibition assay (CellTiter-Glo), Ba/F3 (H773_V774insSVD); assay type: cell-based; details: Mus musculus, BaF3, 72 h; 3 days of incubation; read-out: Ba/F3 (H773_V774 insSVD) CC50
[1] = Cellular growth inhibition assay (CellTiter-Glo), Ba/F3 (Empty vector); assay type: cell-based; details: mouse, Ba/F3 cells with empty vector; Ba/F3 (Empty vector) with 10 ng/ml rmIL-3, 3 days of incubation
Experimental: as §1, §2

Sequence of EGFR (D770_N771insNPG) (P00533 other isoform, or with tags, fused parts or gaps del 1-694/ins NPG behind 770 limits assumed): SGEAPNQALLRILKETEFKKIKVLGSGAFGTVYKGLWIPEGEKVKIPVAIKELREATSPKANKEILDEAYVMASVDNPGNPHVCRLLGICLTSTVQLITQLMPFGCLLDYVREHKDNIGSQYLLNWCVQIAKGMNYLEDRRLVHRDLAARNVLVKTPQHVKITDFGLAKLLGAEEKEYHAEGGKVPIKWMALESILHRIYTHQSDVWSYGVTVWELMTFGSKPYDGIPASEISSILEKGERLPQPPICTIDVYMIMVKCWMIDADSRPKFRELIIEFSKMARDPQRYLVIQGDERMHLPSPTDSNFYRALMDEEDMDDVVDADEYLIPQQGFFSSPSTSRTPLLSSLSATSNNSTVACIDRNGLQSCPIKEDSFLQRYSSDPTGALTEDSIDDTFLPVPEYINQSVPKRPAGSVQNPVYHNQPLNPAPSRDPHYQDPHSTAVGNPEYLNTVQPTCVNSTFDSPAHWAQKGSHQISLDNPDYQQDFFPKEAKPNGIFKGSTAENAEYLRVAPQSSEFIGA

SMILES | EC50 (EGFR (D770_N771insNPG)) [µM] | EC50 (EGFR (WT)) [µM] | CC50 (Ba/F3 (EGFRwt)) [µM] | CC50 (Ba/F3 (L858R + T790M)) [µM] | CC50 (Ba/F3 (A767_dupASV)) [µM] | CC50 (Ba/F3 (D770_N771insSVD)) [µM] | CC50 (Ba/F3 (H773_V774insSVD)) [µM] | CC50 at 3 days [1] [µM]
COc1c(F)cccc1Nc1c2[nH]c3c1C(=O)NCC3C/C=C/COCCOc1cnccc1-2 (stereo not shown) [Compound 99, (13E)-23-[(3-Fluoro-2-methoxyphenyl)amino]-8,11-dioxa-5,18,22-tniazatetracyclo[18.2.1.0^2,7.0^16′2]tricosa-1(23),2,4,6,13,20-hexaen-19-one] | 0.001 to 0.005 | 0.001 to 0.005 | 0.01 to 0.1 | 0.1 to 1 | 0.001 to 0.01 | 0.01 to 0.1 | 0.1 to 1 | > 10
COc1c(F)cccc1Nc1c2[nH]c3c1C(=O)NCC3CCCCOCCOc1cnccc1-2 (stereo not shown) [Compound 100, 23-[(3-Fluoro-2-methoxyphenyl)amino]-8,11-dioxa-5,18,22-triazatetracyclo[18.2.1.0^2,7.0^16,21]tricosa-1(23),2,4,6,20-pentaen-19-one] | 0.001 to 0.005 | ≤ 0.001 | 0.01 to 0.1 | 0.1 to 1 | 0.001 to 0.01 | 0.01 to 0.1 | 0.01 to 0.1 | > 10
COc1c(F)cccc1Nc1c2[nH]c3c1C(=O)NC[C@@H]3CC(=O)N1CCC[C@H]1C(=O)NCCCOc1cnccc1-2 [Compound 147, (16aS,22aS)-23-(3-fluoro-2-methoxyanilino)-14,15,16a,17,18,19,22,22a-octahydro-2H,12H-4,6-(metheno)dipyrido[3,4-k: 4′,3′-o]pyrrolo[2,1-g][1,5,8,13]oxatriazacyclohexadecine-3,16,21(1H,5H,13H)-trione] | – | – | > 10 | > 10 | > 10 | > 10 | > 10 | > 10
COc1c(F)cccc1Nc1c2[nH]c3c1C(=O)NC[C@H]3CC(=O)N1CCC[C@H]1C(=O)NCCCOc1cnccc1-2 [Compound 148, (16aS,22aR)-23-(3-fluoro-2-methoxyanilino)-14,15,16a,17,18,19,22,22a-octahydro-2H,12H-4,6-(metheno)dipyrido[3,4-k: 4′,3′-o]pyrrolo[2,1-g][1,5,8,13]oxatriazacyclohexadecine-3,16,21(1H,5H,13H)-trione] | – | – | > 10 | > 10 | > 10 | > 10 | > 10 | > 10
COc1c(F)cccc1Nc1c2[nH]c3c1C(=O)NCC3CC(=O)N(C)CC(=O)NCCCOc1cnccc1-2 (stereo not shown) [Compound 149, 21-(3-fluoro-2-methoxyanilino)-12-methyl-6,7,8,9,11,12,14,14a,15,16-decahydro-18,20-(metheno)dipyrido[3,4-k: 4′,3′-o][1,5,8,13]oxatriazacyclohexadecine-10,13,17(19H)-trione] | – | – | > 10 | > 10 | 1 to 10 | 1 to 10 | > 10 | > 10
COc1c(F)cccc1Nc1c2[nH]c3c1C(=O)NCC3CC(=O)NCCOCCOCCOc1cnccc1-2 (stereo not shown) [Compound 150, 23-(3-fluoro-2-methoxyanilino)-6,7,9,10,13,14,16,16a,17,18-decahydro-20,22-(metheno)dipyrido[3,4-m: 4′,3′-q][1,4,7,10,15]trioxadiazacyclooctadecine-15,19(12H,21H)-dione] | – | – | > 10 | > 10 | > 10 | > 10 | > 10 | > 10
COc1c(F)cccc1Nc1c2[nH]c3c1C(=O)NCC3CC(=O)N1CCN(CCOCCOc3cnccc3-2)CC1 (stereo not shown) [Compound 153, 29-(3-Fluoro-2-methoxyanilino)-18,21-dioxa-1,6,10,15,24-pentaazapentacyclo[22.2.2.1^8,110^4,9.0^12,17]nonacosa-8,11(29),12(17),13,15-pentaene-2,7-dione] | – | – | > 10 | > 10 | > 10 | > 10 | > 10 | > 10
COc1c(F)cccc1Nc1c2[nH]c3c1C(=O)NC[C@@H]3CCCN1CCO[C@H](COc3cnccc3-2)C1 [Compound 157, (7S)-21-[(3-Fluoro-2-methoxyphenyl)amino]-6,7,9,10,12,13,14,14a,15,16-decahydro-7,11-methano-18,20-methenodipyrido[3,4-k:4′,3′-o][1,4,7,13]dioxadiazacyclohexadecin-17(19H)-one] | – | – | > 10 | > 10 | > 10 | > 10 | > 10 | > 10

— patent publication US20250282795A1, “EGFR Inhibitors in cancer treatment” (Celyn Therapeutics, Inc., priority 2022, published 2025)
